# Assay results from patent publication US5451599A, “Complex salts of hematoporphyrin and of its derivatives, their synthesis, and therapeutic agent” (Wojskowa Akademia Techniczna im. Jaroslawa Dabrowskiego, priority 1991, dated 1995).
# Key:
# [1] = system: Mm (Mm5MT/C1, mammary gland cancer cells of C3H-strain mice); assay: 48 h incubation with the salts: cell fluorescence, living cells, multiplication coefficient (Table 3); type: cell-based, Murine; details: for Cell fluorescence /F/ / Cell multiplication coefficient /M/ / Percentage of living cells /P %/: Mm, 48 hs, 50 mcg/ml
# Experimental: (§1) New compounds of formula 1 were tested on cell lines. Use was made of 9 different neoplastic cell lines which were incubated for 48 hs with various new salts of protoporphyrin and with a new salt of the conventionally applied HpD preparation/hematoporphyrin derivatives/obtained according to Lipson et al. All compounds were used in the form of aqueous solutions, at a concentration of 50 mcg/ml. Determination was made of:
# (§2) 1/ Cell fluorescence /F/: after 48 hs incubation, the cells were washed away, the intensity of fluorescence was measured in a fluorescence microscope and was expressed on an arbitrary scale of 0-4 scores;
# (§3) 2/ Percentage of living cells /P %/ after 48 hs incubation;
# (§4) 3/ Cell multiplication coefficient /M/ in the presence of different preparations, expressed as: [formula]
# mammary gland cancer cells of C3H-strain mice
# [2] = system: HEp-2 (larynx cancer cells); assay: as above; type: cell-based, Human; details: 48 hs, 50 mcg/ml
# Experimental: as §1, §2, §3, §4
# Hep-2 larynx cancer cells
# [3] = system: HBT-39/w (breast cancer cells); assay: 48 h incubation with the salts: cell fluorescence, living cells, multiplication coefficient (Table 2); type: cell-based, Human; details: 48 hs, 50 mcg/ml
# Experimental: as §1, §2, §3, §4
# [4] = system: KB (oral cavity cancer cells); assay: as above; type: cell-based, Human; details: 48 hs, 50 mcg/ml
# Experimental: as §1, §2, §3, §4
# KB oral cavity cancer cells
# CL = assay: 48 h incubation with the salts: cell fluorescence, living cells, multiplication coefficient (Table 1); type: cell-based; details: 48 hs, 50 mcg/ml
# Experimental: as §1, §2, §3, §4
# [5] = system: MA-104 (Rhesus monkey embryo kidney cancer cells); assay: as above; type: cell-based; details: 48 hs, 50 mcg/ml
# Experimental: as §1, §2, §3, §4
# PZ = assay: as above; type: cell-based; details: 48 hs, 50 mcg/ml
# Experimental: as §1, §2, §3, §4
# [6] = system: Hela (cervix uteri cancer cells); assay: as above; type: cell-based, Human; details: 48 hs, 50 mcg/ml
# Experimental: as §1, §2, §3, §4
# [7] = system: GR (GRMT/F6, mammary gland cancer cells of GR-strain mice); assay: 48 h incubation with the salts: cell fluorescence, living cells, multiplication coefficient (Table 2); type: cell-based, Murine; details: 48 hs, 50 mcg/ml
# Experimental: as §1, §2, §3, §4
# GRMT/F6 mammary gland cancer cells of GR-strain mice
# [8] = system: T-47D (breast cancer cells); assay: 48 h incubation with the salts: cell fluorescence, living cells, multiplication coefficient (Table 3); type: cell-based, Human; details: 48 hs, 50 mcg/ml
# Experimental: as §1, §2, §3, §4
# T-47D breast cancer cells
# [9] = system: transplanted mammary gland cancer; assay: survival of C3H mice with transplanted mammary gland cancer, with and without He-Ne laser irradiation (FIG. 6); type: in vivo; details: 10 mg/kg body weight; with or without He-Ne laser 150 J/cm^2
# Experimental: FIG. 6 is a graph showing the survival rate of C3H mice with transplanted mammary gland cancer after administration of compounds of the invention (with and without irradiation) and a control.
# The new compounds were also studied in animals.
# In animal studies, C3H mice with transplanted mammary gland cancer were administered both above-mentioned compounds in a dose of 10 mg/kg body weight, in two variants: mice irradiated with He-Ne laser in a dose of 150 J/cm^2 /in FIG. 6, marked by the letter L next to the symbol of the compound/and not irradiated ones. The results are recorded in the Figure.
Compound,Cell fluorescence /F/ [1],Cell multiplication coefficient /M/ [1],Percentage of living cells /P %/ [1],Cell fluorescence /F/ [2],Cell multiplication coefficient /M/ [2],Percentage of living cells /P %/ [2],Cell fluorescence /F/ [3],Cell multiplication coefficient /M/ [3],Percentage of living cells /P %/ [3],Cell multiplication coefficient /M/ [4],Percentage of living cells /P %/ [4],Cell fluorescence /F/ (CL),Cell multiplication coefficient /M/ (CL),Percentage of living cells /P %/ (CL),Cell fluorescence /F/ [5],Cell multiplication coefficient /M/ [5],Percentage of living cells /P %/ [5],Cell fluorescence /F/ (PZ),Cell multiplication coefficient /M/ (PZ),Percentage of living cells /P %/ (PZ),further results
"CC1=C(CCC(=O)O)c2cc3[nH]c(cc4nc(cc5[nH]c(cc1n2)c(C(C)NC(CS)C(=O)O)c5C)C(C(C)NC(CS)C(=O)O)=C4C)c(C)c3CCC(=O)O.N=C(N)NCCC[C@H](N)C(=O)O.N=C(N)NCCC[C@H](N)C(=O)O (stereo not drawn) [PP/Cys/2 /Arg/2, l-arginine di/N-cysteyl/-protoporphyrinate]",+++,"0,73",40%,++++,"0,32",60%,+,"0,53",42%,"0,12",12%,-,"0,30",30%,++,"0,16",11%,+,"0,40",40%,"Cell fluorescence /F/ [4]: +; Cell fluorescence /F/ [6]: ++; Cell multiplication coefficient /M/ [6]: 0,43; Percentage of living cells /P %/ [6]: 55%; Cell fluorescence /F/ [7]: +++; Cell multiplication coefficient /M/ [7]: 0,75; Percentage of living cells /P %/ [7]: 50%; Cell fluorescence /F/ [8]: +; Cell multiplication coefficient /M/ [8]: 0,84; Percentage of living cells /P %/ [8]: 26%"
l-arginine di/N-arginyl/-protoporphyrinate [PP/Arg/2 /Arg/2],+++,"0,38",12%,+,"0,14",5%,++++,"0,28",28%,"0,16",16%,++,"0,03",4%,++,"0,42",31%,+,"0,10",10%,"Cell fluorescence /F/ [4]: +; Cell fluorescence /F/ [6]: ++++; Cell multiplication coefficient /M/ [6]: 0,28; Percentage of living cells /P %/ [6]: 11%; Cell fluorescence /F/ [7]: +++; Cell multiplication coefficient /M/ [7]: 0,12; Percentage of living cells /P %/ [7]: 12%; Cell fluorescence /F/ [8]: +++; Cell multiplication coefficient /M/ [8]: 0,40; Percentage of living cells /P %/ [8]: 40%"
"CC1=C(CCC(=O)O)c2cc3[nH]c(cc4nc(cc5[nH]c(cc1n2)c(C(C)NC(CCCCN)C(=O)O)c5C)C(C(C)NC(CCCCN)C(=O)O)=C4C)c(C)c3CCC(=O)O.N=C(N)NCCC[C@H](N)C(=O)O.N=C(N)NCCC[C@H](N)C(=O)O (stereo not drawn) [PP/Lys/2 /Arg/2, l-arginine di/N-lysyl/-protoporphyrinate]",++,"0,80",33%,++,"0,42",10%,++++,"0,44",47%,"0,12",12%,+,"0,30",30%,-,"0,10",0%,+,"0,50",50%,"activity in studies of the Mm5MT/C1 cell line (in words) ([1]; mammary gland cancer of C3H mice): one of the most active ones; mice survival [9]: most active, greatly prolonging mice survival; Cell fluorescence /F/ [4]: -; Cell fluorescence /F/ [6]: +++; Cell multiplication coefficient /M/ [6]: 0,16; Percentage of living cells /P %/ [6]: 16%; Cell fluorescence /F/ [7]: +++; Cell multiplication coefficient /M/ [7]: 0,75; Percentage of living cells /P %/ [7]: 25%; Cell fluorescence /F/ [8]: ++; Cell multiplication coefficient /M/ [8]: 0,92; Percentage of living cells /P %/ [8]: 57%"
"CC1=C(CCC(=O)O)c2cc3[nH]c(cc4nc(cc5[nH]c(cc1n2)c(C(C)NC(Cc1c[nH]c2ccccc12)C(=O)O)c5C)C(C(C)NC(Cc1c[nH]c2ccccc12)C(=O)O)=C4C)c(C)c3CCC(=O)O.N=C(N)NCCC[C@H](N)C(=O)O.N=C(N)NCCC[C@H](N)C(=O)O (stereo not drawn) [PP/Trp/2 /Arg/2, l-arginine di/N-tryptophanyl/-protoporphyrinate]",+++,"0,33",11%,+++,"0,15",15%,++++,"0,11",18%,"0,21",21%,-,"0,50",50%,+,"0,25",25%,+,"0,50",50%,"Cell fluorescence /F/ [6]: +++; Cell multiplication coefficient /M/ [6]: 0,62; Percentage of living cells /P %/ [6]: 62%; Cell fluorescence /F/ [7]: +++; Cell multiplication coefficient /M/ [7]: 0,62; Percentage of living cells /P %/ [7]: 62%; Cell fluorescence /F/ [8]: +; Cell multiplication coefficient /M/ [8]: 0,13; Percentage of living cells /P %/ [8]: 13%"
